Measurements as given in ChEMBL document CHEMBL5729184, “Purine derivatives and the use thereof as medicament” (2022).
pIC50: −log10 of the molar value.

Biological target: Glutamate receptor ionotropic, NMDA 2B (Homo sapiens, UniProt Q13224)
Assay: FLIPR Assay: At the assay day cells were washed 3× with assay buffer, 10 μL buffer remained in the wells after washing. 10 μL Ca kit loading buffer (AAT Bioquest) was added to the cells and the plates were incubated with lid for 60 minutes at r.t. 20 μl assay buffer containing 60 μM glycine (20 μM final) and 3 μM glutamate (1 μM final) was added to column 1-23. Fluorescence (indicating the calcium influx as a result of the NR1/NR2B ion channel activation) was read on the FLIPRtetra device for 60 seconds to monitor the glutamate induced effects. After 2 minutes 20 μL of compound or controls (row 1-22) in assay buffer were carefully added to the wells. […] Each assay microtiter plate contained wells (in column 23 or 24) with DMSO controls instead of compound as controls for glycine/glutamate induced fluorescence (high controls) and wells with 1 μM of a reference NR2b NAM as low controls (Compound 22; reference: Layton, Mark E et al, ACS Chemical Neuroscience 2011, 2(7), 352-362).

Sequence of Glutamate receptor ionotropic, NMDA 2B (Q13224 whole entry): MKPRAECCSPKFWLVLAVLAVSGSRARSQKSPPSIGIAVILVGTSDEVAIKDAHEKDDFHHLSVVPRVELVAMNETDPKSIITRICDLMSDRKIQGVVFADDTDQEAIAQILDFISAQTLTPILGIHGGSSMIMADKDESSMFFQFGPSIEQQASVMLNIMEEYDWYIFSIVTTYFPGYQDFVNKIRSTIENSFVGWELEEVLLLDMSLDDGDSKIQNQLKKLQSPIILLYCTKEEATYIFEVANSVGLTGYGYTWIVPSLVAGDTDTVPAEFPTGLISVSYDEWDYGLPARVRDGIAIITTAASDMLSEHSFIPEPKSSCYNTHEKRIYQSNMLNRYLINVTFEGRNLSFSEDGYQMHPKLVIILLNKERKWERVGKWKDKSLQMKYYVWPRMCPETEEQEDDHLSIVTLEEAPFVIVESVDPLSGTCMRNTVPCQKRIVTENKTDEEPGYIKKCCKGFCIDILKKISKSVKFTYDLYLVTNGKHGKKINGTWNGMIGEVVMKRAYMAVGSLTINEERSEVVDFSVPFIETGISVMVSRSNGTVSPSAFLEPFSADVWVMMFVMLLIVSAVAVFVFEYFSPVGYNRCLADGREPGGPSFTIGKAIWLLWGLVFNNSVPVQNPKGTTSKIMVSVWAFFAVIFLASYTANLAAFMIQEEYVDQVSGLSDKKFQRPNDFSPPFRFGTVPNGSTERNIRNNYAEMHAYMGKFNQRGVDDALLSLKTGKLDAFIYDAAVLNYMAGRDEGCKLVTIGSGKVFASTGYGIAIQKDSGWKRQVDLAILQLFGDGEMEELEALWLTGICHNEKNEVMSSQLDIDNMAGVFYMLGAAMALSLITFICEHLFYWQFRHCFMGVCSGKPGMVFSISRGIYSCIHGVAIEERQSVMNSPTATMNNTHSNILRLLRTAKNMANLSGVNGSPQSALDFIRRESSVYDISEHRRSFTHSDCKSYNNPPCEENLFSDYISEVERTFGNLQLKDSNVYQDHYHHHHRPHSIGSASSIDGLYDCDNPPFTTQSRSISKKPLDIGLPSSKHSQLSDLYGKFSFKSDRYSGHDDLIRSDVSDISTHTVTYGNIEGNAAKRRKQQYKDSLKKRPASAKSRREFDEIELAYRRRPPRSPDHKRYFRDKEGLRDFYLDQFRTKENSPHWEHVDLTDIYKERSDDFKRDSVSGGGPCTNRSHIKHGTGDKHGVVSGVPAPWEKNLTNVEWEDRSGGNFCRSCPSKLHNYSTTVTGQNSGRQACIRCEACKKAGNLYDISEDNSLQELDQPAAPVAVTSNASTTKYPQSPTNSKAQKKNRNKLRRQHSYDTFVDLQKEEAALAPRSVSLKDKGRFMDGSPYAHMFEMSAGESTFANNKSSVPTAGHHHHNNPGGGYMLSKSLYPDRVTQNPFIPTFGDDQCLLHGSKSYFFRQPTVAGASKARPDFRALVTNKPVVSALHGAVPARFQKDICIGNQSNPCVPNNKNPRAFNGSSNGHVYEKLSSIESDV

Compound	pIC50
Cc1cccc(F)c1COC(=O)N1CCOC(c2nc3cncnc3[nH]2)C1 (stereo not given)	6.93
O=C(OCc1ccc(Cl)cc1)N1CCOC(c2nc3cncnc3[nH]2)C1 (stereo not given)	6.95
O=C(OCc1ccc(C(F)F)cc1)N1CCOC(c2nc3cncnc3[nH]2)C1 (stereo not given)	7.35
O=C(OCc1ccc(F)cc1F)N1CCOC(c2nc3cncnc3[nH]2)C1 (stereo not given)	6.99
O=C(OCc1ccc(F)c(F)c1)N1CCOC(c2nc3cncnc3[nH]2)C1 (stereo not given)	6.28
Cc1cccc(COC(=O)N2CCOC(c3nc4cncnc4[nH]3)C2)c1 (stereo not given)	6.49
O=C(OCc1cccc(F)c1F)N1CCOC(c2nc3cncnc3[nH]2)C1 (stereo not given)	7.22
Cc1ccc(COC(=O)N2CCOC(c3nc4cncnc4[nH]3)C2)cc1 (stereo not given)	7.17
O=C(OCc1c(F)cc(F)cc1F)N1CCOC(c2nc3cncnc3[nH]2)C1 (stereo not given)	7.08
Cc1ccc(COC(=O)N2CCOC(c3nc4c(C)ncnc4[nH]3)C2)cc1 (stereo not given)	6.82
Cc1ncnc2[nH]c(C3CN(C(=O)OCc4ccccc4F)CCO3)nc12 (stereo not given)	6.41
O=C(OCc1cccc(F)c1)N1CCOC(c2nc3cncnc3[nH]2)C1 (stereo not given)	6.53
O=C(OCc1ccc(F)cc1)N1CCOC(c2nc3cncnc3[nH]2)C1 (stereo not given)	6.97
O=C(OCc1ccc(F)cc1Cl)N1CCOC(c2nc3cncnc3[nH]2)C1 (stereo not given)	7.05
Cc1c(F)cccc1COC(=O)N1CCOC(c2nc3cncnc3[nH]2)C1 (stereo not given)	6.28
Cc1cccc(COC(=O)N2CCOC(c3nc4cncnc4[nH]3)C2)c1F (stereo not given)	7.08
O=C(OCc1c(F)cccc1F)N1CCOC(c2nc3cncnc3[nH]2)C1 (stereo not given)	6.95
O=C(OCc1ccccc1F)N1CCOC(c2nc3cncnc3[nH]2)C1 (stereo not given)	7.13
O=C(OCc1ccccc1)N1CCOC(c2nc3cncnc3[nH]2)C1 (stereo not given)	6.94
Cc1ccc(COC(=O)N2CCO[C@H](c3nc4cncnc4[nH]3)C2)cc1F	7.00
Cc1ncnc2[nH]c(C3CN(C(=O)OCc4ccc(F)cc4)CCO3)nc12 (stereo not given)	6.20
O=C(OCc1ccccc1Cl)N1CCOC(c2nc3cncnc3[nH]2)C1 (stereo not given)	7.06
O=C(OCc1ccc(Cl)c(F)c1)N1CCOC(c2nc3cncnc3[nH]2)C1 (stereo not given)	6.50
Cc1ccc(COC(=O)N2CCOC(c3nc4cncnc4[nH]3)C2)c(F)c1 (stereo not given)	7.31
Cc1cc(F)ccc1COC(=O)N1CCOC(c2nc3cncnc3[nH]2)C1 (stereo not given)	6.63
